{
  "source": "paper PMC10336775",
  "about": "(Proteins, 2022)",
  "target": "afRubisco (Archaeoglobus fulgidus, UniProt O28635)",
  "sequence (O28635 whole entry)": "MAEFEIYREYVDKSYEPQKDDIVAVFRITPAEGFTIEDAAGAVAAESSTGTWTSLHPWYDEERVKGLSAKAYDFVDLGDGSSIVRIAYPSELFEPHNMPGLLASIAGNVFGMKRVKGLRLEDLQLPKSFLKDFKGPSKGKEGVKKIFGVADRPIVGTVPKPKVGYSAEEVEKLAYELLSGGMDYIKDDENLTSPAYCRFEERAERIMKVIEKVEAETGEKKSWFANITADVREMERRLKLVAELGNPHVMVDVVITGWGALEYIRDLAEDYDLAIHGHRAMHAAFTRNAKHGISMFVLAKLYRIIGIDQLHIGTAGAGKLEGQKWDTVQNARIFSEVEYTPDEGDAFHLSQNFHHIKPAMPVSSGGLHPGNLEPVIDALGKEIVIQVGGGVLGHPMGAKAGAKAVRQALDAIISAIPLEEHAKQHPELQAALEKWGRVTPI",
  "experiment": "coupled NADH assay of 3PGA formed",
  "type": "biochemical",
  "details": "2 mM RuBp, 10 mM NaHCO3, 20 mM MgCl2, pH 8.2, 65 C; carboxylase activity",
  "data": [
    {"smiles": "O=C(COP(=O)(O)O)[C@H](O)[C@H](O)COP(=O)(O)O", "note": "[RuBp]", "values": [
      {"measurement": "coupled NADH assay of 3PGA formed (340 nm)", "value": "Activated afRubisco has very low carboxylase activity at room temperature but has much higher"}
    ]}
  ]
}
